How the values were obtained:
[1] = system: choroidal neovascularization (CNV) in C57BL/J mice; assay: Laser-induced choroidal neovascularization (CNV) in mice, rupture of Bruch's membrane; type: in vivo, mouse; details: for CNV versus vehicle-injected controls: single 5 μl intravitreal injection, 14 days post-laser
Description: Choroidal neovascularization (CNV) was induced in C57BL/J mice by rupturing Bruch's membrane via focal laser photocoagulation (FIG. 3). (Tobe T, et al., AM. J. PATHOL., 153:1641-1646 (1998)). Three to four retinal burns were placed in randomly assigned eye using the Alcon 532 nm EyeLite laser (75 μm spot size, 0.1 seconds duration, 120 mW) with a slit lamp delivery system. The laser burns were used to generate a rupture in Bruch's membrane, which was indicated opthalmoscopically by the formation of a bubble under the retina. Only mice with laser burns that produced three bubbles per eye were included in the study. Burns were typically placed at the 3, 6, 9 or 12 o'clock positions in the posterior pole of the retina, avoiding the branch retinal arteries and veins.
Each mouse was randomly assigned into one of the following treatment groups after laser: noninjected controls, sham-injected controls, vehicle-injected mice, or one of three anecortave acetate-injected groups. Control mice received laser photocoagulation in both eyes, where one eye received a sham injection, i.e. a pars plana needle puncture. For intravitreal-injected animals, one laser-treated eye received a 5 μl intravitreal injection of 0%, 0.1%, 1%, or 10% anecortave acetate. The intravitreal injection was performed immediately after laser photocoagulation.
Fourteen days post-laser, all mice were euthanized and systemically perfused with fluorescein-labeled dextran. Eyes were then harvested and prepared as choroidal flat mounts, and the 2-dimensional CNV area was quantified with computerized digital analysis, (Mori K., et al., AM. J. PATHOL. 159:313-320 (2001)). The median CNV area/burn per mouse per treatment was used for statistical analysis; P≦0.05 was considered significant.

[2] = system: posterior segment neovascularization (NV); details: intravitreal injection, rat OIR model (Penn 2001); cited from earlier work
[3] = Clark 1999; cited from earlier work

CC(=O)OCC(=O)[C@@]1(O)CC[C@H]2[C@@H]3CCC4=CC(=O)CC[C@]4(C)C3=CC[C@@]21C [anecortave acetate, 4,9(11)-pregnadien-17α,21-diol-3,20-dione-21-acetate]
CNV versus vehicle-injected controls ([1]; 0.1% anecortave acetate): No difference
CNV versus vehicle-injected controls ([1]; 1% anecortave acetate): No difference
CNV development seen as hyperfluorescent area at the site of laser photocoagulation (FIG. 4) ([1]; 10% anecortave acetate versus controls, choroidal flat mounts, fluorescein-labeled dextran): gross reduction in CNV development
effect on laser-induced choroidal neovascularization (FIG. 5) ([1]; single intravitreal injection in the mouse): inhibits laser-induced choroidal neovascularization
efficacy against posterior segment neovascularization (NV) [2]: reproducible efficacy
conventional glucocorticoid (anti-inflammatory) or mineralocorticoid activity [3]: devoid of conventional glucocorticoid (anti-inflammatory) or mineralocorticoid activity

Reference: patent US20080234245A1, “Angiostatic Agents for Controlling Choroidal Neovascularisation After Ocular Surgery or Trauma” (priority 2004, published 2008)
